Drawing on PubChem BioAssay (NCI), this text covers TGI and GI50 for 29 compounds.

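Exposure lasted 48 hours, with cells grown in 96-well plates and compounds tested at five concentrations. GI50 is the concentration that inhibits growth by half. TGI is the concentration that stops growth completely.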

One experiment concerns RXF 393 renal. Kind of experiment: inhibition of tumour cell growth, NCI panel, 48 h.
`COc1ccc(C2Oc3c(c(O)cc4c3[C@H](c3ccc(O)cc3O)[C@H](O)C(c3ccc(O)c(O)c3)O4)C[C@@H]2O)cc1O` (some centres undefined) registered a TGI greater than 100 µM.

As for `CCOC(OC1=C(C#N)CCCC1)C(CC)[Se]c1ccccc1` (centres undefined), the TGI is 31.1 µM.

The compound `C=C1C2Oc3ccccc3C1N(c1ccccc1)O2` (centres undefined) came in with a TGI greater than 100 µM.

As for `O=S1CSSC1`, the TGI turned out to be 35.2 µM.

For `C=CCNC(=O)N(CCC)CCCC(NC(C)=O)C(=O)NCc1ccccc1` (centres undefined), the TGI was greater than 100 µM.

In turn, `CN(C)C(=S)Nc1nnc(Nc2ccccc2)s1` came in with a TGI greater than 100 µM.

Consider `CC(=O)[CH-]C(=O)c1ccccc1.CC(=O)[CH-]C(=O)c1ccccc1.CC1(C)OCC(C2OC3OC(C)(C)OC3C2[O-])O1.CC[O-].[Ti+4]` (centres undefined), for which the GI50 was 3.36 µM and the TGI is 14.9 µM.

With `CCOC(=O)C1(Cc2ccc3ccccc3c2)CCCCC(=O)N1` (centres undefined), the TGI was greater than 100 µM.

Regarding `O=[N+]([O-])c1ccc(-c2cc3c(Nc4ccc(Cl)c(C(F)(F)F)c4)ncnc3s2)cc1`, the GI50 was 1.79 µM and the TGI was 6.19 µM.

In the case of `COC(=O)C1C(=O)N(CCc2c[nH]c3ccccc23)C[C@@H]2CCC(=O)C[C@H]12` (some centres undefined), the TGI was greater than 100 µM.

Compound `C[C@]12C/C(=C/O)C(=O)C(O)=C1CC[C@@H]1C2CC[C@@]2(C)C1CC[C@@H]2O` (some centres undefined) returned a TGI of 36.3 µM.

`N#CC(C#N)=c1c2nsnc2c(=C(C#N)C#N)c2nsnc12`: the TGI was determined as 2.61 µM.

Another experiment concerns SW-620 colon. Kind of experiment: inhibition of tumour cell growth, NCI panel, 48 h.
For `Cc1c2ccncc2c(C)c2c1[nH]c1ccc(O)c(OCC(F)(F)F)c12`, the TGI was 19.2 µM.

Consider `CC(C)(C)OC(=O)NC1CCCC1=O` (centres undefined), for which the TGI is greater than 100 µM.

`Cc1c(C(=O)/C=C/c2ccccc2[N+](=O)[O-])[n+](=O)c2ccccc2n1[O-]` came in with a TGI of 17.5 µM.

`O=C1[C@H]2ON(c3ccccc3)C(c3ccco3)[C@H]2C(=O)N1c1ccc(Cc2ccc(N3C(=O)[C@@H]4ON(c5ccccc5)C(c5ccco5)[C@@H]4C3=O)cc2)cc1` (some centres undefined): the TGI was greater than 100 µM.

For the compound `Cc1cccc(C)c1N1C(=O)C(=O)C(c2nc3ccccc3s2)/C(=N/NC(=O)NN)C1=O` (centres undefined), the TGI was greater than 100 µM.

The compound `CCCCCCC(C)CCCCCCCCCCC(=O)O` (centres undefined) registered a TGI greater than 100 µM.

`CC(C)(C)c1ccc(OC2CCO2)cc1` (centres undefined) showed a TGI of 30.9 µM.

Consider `CC1(O)CCn2c(=O)c3cc4ccccc4cc3c(=O)n2C1O` (centres undefined), for which the TGI is greater than 100 µM.

Regarding `CC(C)[O-].CC(C)[O-].O=c1cccccc1[O-].O=c1cccccc1[O-].[Ti+4]`, the TGI was greater than 100 µM.

As for `COc1cc(CNc2nc3ccc(C(F)(F)F)cc3nc2-c2ccccc2)cc(OC)c1OC`, the TGI is greater than 100 µM.

Compound `COc1ccccc1NC(=O)/C(=C/c1ccccc1)C(C)=O` had a TGI greater than 100 µM.

`CC(=O)n1c(=O)c2cc3c(=O)n(-c4cccc(C#N)c4)c(=O)c3cc2c1=O` displayed a TGI greater than 100 µM.

`O=C(CC1(O)C(=O)Nc2c(Cl)ccc(Cl)c21)c1ccc(Cl)cc1Cl` (centres undefined) came in with a TGI of 56.6 µM.

As to `CC1=NN(C(=O)c2ccncc2)C(=O)C1N=Nc1ccc(F)cc1` (centres undefined), the TGI is greater than 100 µM.

As for `COc1ccc(C2Oc3c(c(O)cc4c3[C@H](c3ccc(O)cc3O)[C@H](O)C(c3ccc(O)c(O)c3)O4)C[C@@H]2O)cc1O` (some centres undefined), the TGI was greater than 100 µM.

Compound `C=C1C2Oc3ccccc3C1N(c1ccccc1)O2` (centres undefined) had a TGI greater than 100 µM.

With `O=S1CSSC1`, the TGI was 31.7 µM.

Compound `C=CCNC(=O)N(CCC)CCCC(NC(C)=O)C(=O)NCc1ccccc1` (centres undefined) displayed a TGI greater than 100 µM.

Consider `CN(C)C(=S)Nc1nnc(Nc2ccccc2)s1`, for which the TGI is greater than 100 µM.

Take `CC(=O)[CH-]C(=O)c1ccccc1.CC(=O)[CH-]C(=O)c1ccccc1.CC1(C)OCC(C2OC3OC(C)(C)OC3C2[O-])O1.CC[O-].[Ti+4]` (centres undefined): the GI50 is 15.6 µM and the TGI stood at 44.5 µM.

The compound `CCOC(=O)C1(Cc2ccc3ccccc3c2)CCCCC(=O)N1` (centres undefined) showed a TGI greater than 100 µM.

For `O=[N+]([O-])c1ccc(-c2cc3c(Nc4ccc(Cl)c(C(F)(F)F)c4)ncnc3s2)cc1`, the GI50 was 2.86 µM and the TGI is greater than 100 µM.

For the compound `Cc1ccccc1/C=C/C(=O)c1ccccc1`, the TGI was greater than 10 µM.

For `COC(=O)C1C(=O)N(CCc2c[nH]c3ccccc23)C[C@@H]2CCC(=O)C[C@H]12` (some centres undefined), the TGI was greater than 100 µM.

`C[C@]12C/C(=C/O)C(=O)C(O)=C1CC[C@@H]1C2CC[C@@]2(C)C1CC[C@@H]2O` (some centres undefined) gave a TGI greater than 100 µM.

`Cc1ccc(C)c(N2C(=O)C(=O)C(c3nc4ccccc4s3)C(=Nc3cccc4c(=O)[nH][nH]c(=O)c34)C2=O)c1` (centres undefined) showed a TGI greater than 100 µM.

The compound `Cc1cccc(C)c1N1C(=O)C(=O)C(c2nc3ccccc3s2)C(=Nc2cccc3c(=O)[nH][nH]c(=O)c23)C1=O` (centres undefined) had a TGI greater than 100 µM.

`N#CC(C#N)=c1c2nsnc2c(=C(C#N)C#N)c2nsnc12`: the TGI was 3.05 µM.

In a further experiment the test system is TK-10 renal. Nature of the experiment: inhibition of tumour cell growth, NCI panel, 48 h.
`Cc1c2ccncc2c(C)c2c1[nH]c1ccc(O)c(OCC(F)(F)F)c12` came in with a TGI of 25 µM.

`CC(C)(C)OC(=O)NC1CCCC1=O` (centres undefined) registered a TGI greater than 100 µM.

The compound `Cc1cccc(C)c1N1C(=O)C(=O)C(c2nc3ccccc3s2)/C(=N/NC(=O)NN)C1=O` (centres undefined) showed a TGI greater than 100 µM.

In turn, `CCCCCCC(C)CCCCCCCCCCC(=O)O` (centres undefined) yielded a TGI greater than 100 µM.

The compound `CC(C)(C)c1ccc(OC2CCO2)cc1` (centres undefined) returned a TGI greater than 100 µM.

In turn, `CC1(O)CCn2c(=O)c3cc4ccccc4cc3c(=O)n2C1O` (centres undefined) gave a TGI greater than 100 µM.

The compound `CC(C)[O-].CC(C)[O-].O=c1cccccc1[O-].O=c1cccccc1[O-].[Ti+4]` gave a TGI greater than 100 µM.

Regarding `COc1cc(CNc2nc3ccc(C(F)(F)F)cc3nc2-c2ccccc2)cc(OC)c1OC`, the TGI is greater than 100 µM.

As to `COc1ccccc1NC(=O)/C(=C/c1ccccc1)C(C)=O`, the TGI was greater than 100 µM.

The compound `CC(=O)n1c(=O)c2cc3c(=O)n(-c4cccc(C#N)c4)c(=O)c3cc2c1=O` returned a TGI greater than 100 µM.

Compound `O=C(CC1(O)C(=O)Nc2c(Cl)ccc(Cl)c21)c1ccc(Cl)cc1Cl` (centres undefined) came in with a TGI greater than 100 µM.

As for `CC1=NN(C(=O)c2ccncc2)C(=O)C1N=Nc1ccc(F)cc1` (centres undefined), the TGI is greater than 100 µM.

In turn, `COc1ccc(C2Oc3c(c(O)cc4c3[C@H](c3ccc(O)cc3O)[C@H](O)C(c3ccc(O)c(O)c3)O4)C[C@@H]2O)cc1O` (some centres undefined) came in with a TGI greater than 100 µM.

In turn, `CCOC(OC1=C(C#N)CCCC1)C(CC)[Se]c1ccccc1` (centres undefined) displayed a TGI greater than 100 µM.

On to `C=C1C2Oc3ccccc3C1N(c1ccccc1)O2` (centres undefined), for which the TGI was greater than 100 µM.

Turning to `O=S1CSSC1`, the TGI is greater than 100 µM.

Compound `C=CCNC(=O)N(CCC)CCCC(NC(C)=O)C(=O)NCc1ccccc1` (centres undefined) displayed a TGI greater than 100 µM.

For the compound `CC(=O)[CH-]C(=O)c1ccccc1.CC(=O)[CH-]C(=O)c1ccccc1.CC1(C)OCC(C2OC3OC(C)(C)OC3C2[O-])O1.CC[O-].[Ti+4]` (centres undefined), the GI50 was 12.4 µM and the TGI turned out to be 27 µM.

`CCOC(=O)C1(Cc2ccc3ccccc3c2)CCCCC(=O)N1` (centres undefined) yielded a TGI greater than 100 µM.
